Consider eleven compounds from patent US11986471B2, “Compounds and methods of use” (Tango Therapeutics, Inc., priority 2018, dated 2024).

Assay [1] deals with T1, PRMT5 (Homo sapiens, UniProt O14744).
T1 construct: purchased Viva (custom protein)
As to the kind of experiment: PRMT5 IC50 assay in the presence of SAM as cofactor. It counts as biochemical. The gist of the method:
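Results given as IC50 (μM), from which Ki follows by dividing by 1.5 in the SAM condition or by 13.5 in the MTA condition. The ratio of SAM Ki to MTA Ki indicates MTA-cooperative preference.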

Assay [2] has as its target T1, PRMT5. Put plainly: PRMT5 IC50 assay in the presence of MTA as cofactor. The settings on record: for IC50: PRMT5, MTA as cofactor; for SAM/MTA Ratio: ratio between the Ki in the presence of SAM and the Ki in the presence of MTA. It counts as biochemical. The gist of the method: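 IC50 values were measured against human PRMT5 with SAM, with MTA, or with no cofactor. Ki was derived from IC50 as Ki=IC50/1.5 with SAM and Ki=IC50/13.5 with MTA, and the Ki(SAM)/Ki(MTA) ratio was then taken.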

Assay [3] deals with HAP1 MTAP-deleted. As to the kind of experiment: SDMA in-cell western assay, HAP1 MTAP-deleted cell line. Particulars: for IC50: Homo sapiens, HAP1 MTAP-deleted cell line; for MTAP Intact/Deleted Ratio: IC50 ratio HAP1 MTAP-intact / HAP1 MTAP-deleted. It counts as cell-based. The method in brief: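 Readout is cellular SDMA signal by in-cell western, with IC50 values derived from it. The cells are MTAP-null HAP1, matched to an isogenic MTAP-intact HAP1 line.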

Assay [4] relates to HAP1 MTAP-intact. Put plainly: SDMA in-cell western assay, HAP1 MTAP-intact cell line. In kind it is cell-based. Particulars: Homo sapiens. The method in brief:
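IC50 values come from SDMA in-cell western staining of HAP1 cells. The MTAP-intact line carries endogenous MTAP, while its MTAP-deleted counterpart lacks MTAP entirely. A selectivity ratio of at least 3 fold marks a compound as MTAP-selective.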

In assay [5] the target is T1, PRMT5. Put plainly: PRMT5 IC50 assay with no cofactor. It counts as biochemical. The gist of the method: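 Ki conversion: SAM arm, Ki=IC50/1.5; MTA arm, Ki=IC50/13.5. No-cofactor arm reported as IC50 only. Selectivity expressed as Ki(SAM)/Ki(MTA).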

A value given as a limit tells only on which side of the number the result lay.

T1 sequence (O14744 whole entry): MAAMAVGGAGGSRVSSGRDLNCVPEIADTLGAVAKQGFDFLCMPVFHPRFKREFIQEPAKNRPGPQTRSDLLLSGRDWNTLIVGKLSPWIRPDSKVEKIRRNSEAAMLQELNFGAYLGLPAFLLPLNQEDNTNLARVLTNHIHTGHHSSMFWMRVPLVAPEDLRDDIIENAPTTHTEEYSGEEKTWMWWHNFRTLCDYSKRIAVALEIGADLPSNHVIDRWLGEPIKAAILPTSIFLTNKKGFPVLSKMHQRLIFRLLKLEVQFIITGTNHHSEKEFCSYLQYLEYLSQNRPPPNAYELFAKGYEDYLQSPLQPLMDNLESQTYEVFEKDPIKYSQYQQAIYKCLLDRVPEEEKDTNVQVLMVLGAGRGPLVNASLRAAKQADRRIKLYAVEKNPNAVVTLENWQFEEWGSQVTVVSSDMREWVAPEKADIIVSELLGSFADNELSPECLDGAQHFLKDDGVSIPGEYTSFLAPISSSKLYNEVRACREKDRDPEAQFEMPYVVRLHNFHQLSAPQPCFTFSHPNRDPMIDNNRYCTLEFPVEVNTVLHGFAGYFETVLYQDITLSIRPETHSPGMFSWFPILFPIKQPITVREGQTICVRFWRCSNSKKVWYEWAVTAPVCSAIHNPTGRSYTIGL
T1 sequence (Q9BQA1 whole entry partner): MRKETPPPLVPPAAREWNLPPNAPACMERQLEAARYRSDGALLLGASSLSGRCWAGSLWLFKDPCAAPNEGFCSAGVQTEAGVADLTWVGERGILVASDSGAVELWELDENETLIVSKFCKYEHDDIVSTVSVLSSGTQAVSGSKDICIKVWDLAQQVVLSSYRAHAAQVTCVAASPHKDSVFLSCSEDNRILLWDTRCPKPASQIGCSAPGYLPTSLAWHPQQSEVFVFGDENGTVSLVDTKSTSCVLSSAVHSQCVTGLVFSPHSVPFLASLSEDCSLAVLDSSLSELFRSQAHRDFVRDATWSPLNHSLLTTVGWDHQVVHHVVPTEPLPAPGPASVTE

For orientation: IC50 means the concentration that gives 50% inhibition. For the compound `Cc1ncoc1COc1ccc2c(c1)CCN(C[C@@H](O)CNC(=O)c1cc(NC3CCC3)ncc1Cl)C2` [Compound 607, 5-chloro-2-(cyclobutylamino)-N-[(2S)-2-hydroxy-3-[6-[(4-methyloxazol-5-yl)methoxy]-3,4-dihydro-1H-isoquinolin-2-yl]propyl]pyridine-4-carboxamide], the IC50 in assay [1] is 50 to 500 nM; in assay [2] it was 50 to 500 nM; in assay [3], < 1000 nM; in assay [4], < 1000 nM; in assay [5], ≥ 5000 nM. The “SAM/MTA Ratio” value in assay [2] is “A (a Ki ratio greater than or equal to 10 fold between the Ki in the presence of SAM and the Ki in the presence of MTA)”. Besides, the “MTAP Intact/Deleted Ratio” value in assay [3] was “C* (an IC50 ratio of less than 3 fold between the IC50 in the HAP1 MTAP-intact cell line and the HAP1 MTAP-deleted cell line)”.
Turning to `Cc1ncoc1COc1ccc2c(c1)CCN(C[C@@H](O)CNC(=O)c1ccnc(NC3CC4(CCC4)C3)c1)C2` [Compound 609, (S)—N-(2-hydroxy-3-(6-((4-methyloxazol-5-yl)methoxy)-3,4-dihydroisoquinolin-2(1H)-yl)propyl)-2-(spiro[3.3]heptan-2-ylamino)isonicotinamide], the IC50 in assay [1] was 500 to 5000 nM; in assay [2], < 50 nM; in assay [3], < 1000 nM; in assay [4], 1000 to 10000 nM; in assay [5] it was 500 to 5000 nM. For the same compound, the “SAM/MTA Ratio” value in assay [2] was “A (a Ki ratio greater than or equal to 10 fold between the Ki in the presence of SAM and the Ki in the presence of MTA)”. In addition, in assay [3], the “MTAP Intact/Deleted Ratio” value was “B* (an IC50 ratio greater than or equal to 3 fold but lower than 10 fold between the IC50 in the HAP1 MTAP-intact cell line and the HAP1 MTAP-deleted cell line)”.
Consider `Cc1ncoc1COc1ccc2c(c1)CCN(C[C@@H](O)CNC(=O)c1cc(NC3CC4(CCC4)C3)nc(N3CCN(C(=O)C4CC4)CC3)c1)C2` [Compound 610, (S)-2-(4-(cyclopropanecarbonyl)piperazin-1-yl)-N-(2-hydroxy-3-(6-((4-methyloxazol-5-yl)methoxy)-3,4-dihydroisoquinolin-2(1H)-yl)propyl)-6-(spiro[3.3]heptan-2-ylamino)isonicotinamide], for which the IC50 in assay [1] was 50 to 500 nM; in assay [2] it was < 50 nM; in assay [3], 1000 to 10000 nM; in assay [4], 1000 to 10000 nM; in assay [5] it was 50 to 500 nM. For the same compound, in assay [2], the “SAM/MTA Ratio” value is “A (a Ki ratio greater than or equal to 10 fold between the Ki in the presence of SAM and the Ki in the presence of MTA)”. Also, the “MTAP Intact/Deleted Ratio” value in assay [3] is “C* (an IC50 ratio of less than 3 fold between the IC50 in the HAP1 MTAP-intact cell line and the HAP1 MTAP-deleted cell line)”.
As for `Cc1ncoc1COc1ccc2c(c1)CCN(C[C@@H](O)CNC(=O)c1cc(NC3CC4(CC4)C3)nc(N3CCN(C(=O)C4CC4)CC3)c1)C2` [Compound 611, (S)-2-(4-(cyclopropanecarbonyl)piperazin-1-yl)-N-(2-hydroxy-3-(6-((4-methyloxazol-5-yl)methoxy)-3,4-dihydroisoquinolin-2(1H)-yl)propyl)-6-(spiro[2.3]hexan-5-ylamino)isonicotinamide], the IC50 in assay [1] was 50 to 500 nM; in assay [2], < 50 nM; in assay [3] it was < 1000 nM; in assay [4], < 1000 nM; in assay [5], 50 to 500 nM. In addition, the “SAM/MTA Ratio” value in assay [2] is “A (a Ki ratio greater than or equal to 10 fold between the Ki in the presence of SAM and the Ki in the presence of MTA)”. Also, the “MTAP Intact/Deleted Ratio” value in assay [3] is “B* (an IC50 ratio greater than or equal to 3 fold but lower than 10 fold between the IC50 in the HAP1 MTAP-intact cell line and the HAP1 MTAP-deleted cell line)”.
Take `COCCN(C)c1cc(C(=O)NC[C@H](O)CN2CCc3cc(OCc4ocnc4C)c(F)cc3C2)cc(NC2CCN(C(C)=O)CC2)n1` [Compound 612, 2-[(1-acetyl-4-piperidyl)amino]-N-[(2S)-3-[7-fluoro-6-[(4-methyloxazol-5-yl)methoxy]-3N-dihydro-1H-isoquinolin-2-yl]-2-hydroxy-propyl]-6-[2-methoxyethyl(methyl)amino]pyridine-4-carboxamide]: the IC50 was 50 to 500 nM in assay [1]; 50 to 500 nM in assay [2]; < 1000 nM in assay [3]; ≥ 10000 nM in assay [4]; 50 to 500 nM in assay [5]. Further, the “SAM/MTA Ratio” value in assay [2] is “A (a Ki ratio greater than or equal to 10 fold between the Ki in the presence of SAM and the Ki in the presence of MTA)”. The “MTAP Intact/Deleted Ratio” value in assay [3] is “A* (an IC50 ratio greater than or equal to 10 fold between the IC50 in the HAP1 MTAP-intact cell line and the HAP1 MTAP-deleted cell line)”.
Turning to `Cc1ncoc1COc1ccc2c(c1)CCN(C[C@@H](O)CNC(=O)c1cc(NC3CCC3)ncc1F)C2` [Compound 614, (S)-2-(cyclobutylamino)-5-fluoro-N-(2-hydroxy-3-(6-((4-methyloxazol-5-yl)methoxy)-3,4-dihydroisoquinolin-2(1H)-yl)propyl)isonicotinamide], the IC50 in assay [1] is 50 to 500 nM; in assay [2], 50 to 500 nM; in assay [3] it was < 1000 nM; in assay [4], 1000 to 10000 nM; in assay [5], 500 to 5000 nM. Moreover, the “SAM/MTA Ratio” value in assay [2] is “A (a Ki ratio greater than or equal to 10 fold between the Ki in the presence of SAM and the Ki in the presence of MTA)”. In assay [3], the “MTAP Intact/Deleted Ratio” value was “C* (an IC50 ratio of less than 3 fold between the IC50 in the HAP1 MTAP-intact cell line and the HAP1 MTAP-deleted cell line)”.
`CC(=O)N1CCN(c2cc(C(=O)NC[C@H](O)CN3CCc4cc(OCc5ocnc5C)c(F)cc4C3)cc(NC3CCC3)n2)CC1` [Compound 615, 2-(4-acetylpiperazin-1-yl)-6-(cyclobutylamino)-N-[(2S)-3-[7-fluoro-6-[(4-methyloxazol-5-yl)methoxy]-3,4-dihydro-1H-isoquinolin-2-yl]-2-hydroxy-propyl]pyridine-4-carboxamide]: the IC50 in assay [1] was 50 to 500 nM; in assay [2], 50 to 500 nM; in assay [3], < 1000 nM; in assay [4], 1000 to 10000 nM; in assay [5], 500 to 5000 nM. Further, the “SAM/MTA Ratio” value in assay [2] is “A (a Ki ratio greater than or equal to 10 fold between the Ki in the presence of SAM and the Ki in the presence of MTA)”. For the same compound, the “MTAP Intact/Deleted Ratio” value in assay [3] is “A* (an IC50 ratio greater than or equal to 10 fold between the IC50 in the HAP1 MTAP-intact cell line and the HAP1 MTAP-deleted cell line)”.
With `Cc1ncoc1COc1ccc2c(c1)CCN(C[C@@H](O)CNC(=O)c1cc(NC3CCN(C(=O)C(C)(C)C)CC3)ncn1)C2` [Compound 616, 6-{[1-(2,2-dimethylpropanoyl)piperidin-4-yl]amino}-N-[(2S)-2-hydroxy-3-{6-[(4-methyl-1,3-oxazol-5-yl)methoxy]-1,2,3,4-tetrahydroisoquinolin-2-yl}propyl]pyrimidine-4-carboxamide], the IC50 in assay [1] was 50 to 500 nM; in assay [2], < 50 nM; in assay [3] it was < 1000 nM; in assay [4], 1000 to 10000 nM; in assay [5] it was 500 to 5000 nM. In addition, in assay [2], the “SAM/MTA Ratio” value was “A (a Ki ratio greater than or equal to 10 fold between the Ki in the presence of SAM and the Ki in the presence of MTA)”. The “MTAP Intact/Deleted Ratio” value in assay [3] was “C* (an IC50 ratio of less than 3 fold between the IC50 in the HAP1 MTAP-intact cell line and the HAP1 MTAP-deleted cell line)”.
With `CC(=O)N1CCC(Nc2cc(C(=O)NC[C@H](O)CN3CCc4nc(OCc5ocnc5C)ccc4C3)ccn2)CC1` [Compound 617, 2-[(1-acetyl-4-piperidyl)amino]-N-[(2S)-2-hydroxy-3-[2-[(4-methyloxazol-5-yl)methoxy]-7,8-dihydro-5H-1,6-naphthyridin-6-yl]propyl]pyridine-4-carboxamide], the IC50 was 50 to 500 nM in assay [1]; 50 to 500 nM in assay [2]; 1000 to 10000 nM in assay [3]; ≥ 10000 nM in assay [4]; 500 to 5000 nM in assay [5]. For the same compound, in assay [3], the “MTAP Intact/Deleted Ratio” value was “C* (an IC50 ratio of less than 3 fold between the IC50 in the HAP1 MTAP-intact cell line and the HAP1 MTAP-deleted cell line)”.
`CC(=O)N1CCC(Nc2cc(C(=O)NC[C@H](O)CN3CCc4c(C)c(OCc5ocnc5C)cc(F)c4C3)ncn2)CC1` [Compound 618, 6-[(1-acetyl-4-piperidyl)amino]-N-[(2S)-3-[8-fluoro-5-methyl-6-[(4-methyloxazol-5-yl)methoxy]-3,4-dihydro-1H-isoquinolin-2-yl]-2-hydroxy-propyl]pyrimidine-4-carboxamide]: the IC50 in assay [1] was 50 to 500 nM; in assay [2] it was 50 to 500 nM; in assay [3], 1000 to 10000 nM; in assay [4], ≥ 10000 nM; in assay [5], 500 to 5000 nM. Also, the “MTAP Intact/Deleted Ratio” value in assay [3] was “B* (an IC50 ratio greater than or equal to 3 fold but lower than 10 fold between the IC50 in the HAP1 MTAP-intact cell line and the HAP1 MTAP-deleted cell line)”.
With `Cc1ncoc1COc1cc(F)c2c(c1C)CCN(C[C@@H](O)CNC(=O)c1ccnc(NC3CCC3)c1)C2` [Compound 619, 2-(cyclobutylamino)-N-[(2S)-3-[8-fluoro-5-methyl-6-[(4-methyloxazol-5-yl)methoxy]-3,4-dihydro-1H-isoquinolin-2-yl]-2-hydroxy-propyl]pyridine-4-carboxamide], the IC50 in assay [1] was 50 to 500 nM; in assay [2], 50 to 500 nM; in assay [3], 1000 to 10000 nM; in assay [4], ≥ 10000 nM; in assay [5] it was 500 to 5000 nM. Moreover, in assay [3], the “MTAP Intact/Deleted Ratio” value was “C* (an IC50 ratio of less than 3 fold between the IC50 in the HAP1 MTAP-intact cell line and the HAP1 MTAP-deleted cell line)”.
